Assay results reported in ChEMBL document CHEMBL1201862, “PubChem BioAssay data set” (2004).
Activity calls are given as the source filed them. For most assays here, no stated cut-off is given here; in the data, actives have a measured EC50 and inactives only a lower limit.

Experiments:
[1] = Trypanosoma cruzi growth suppression in host cells – NIH3T3 host cells, beta-gal luminescence, confirmation (AID 2044); type: functional, cell-based;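 further: intracellular parasites grown in NIH/3T3 mouse fibroblasts as host cells; luminescent beta-galactosidase reporter signal from transgenic T. cruzi replicating inside host cells; inhibitors lower the luminescence signal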
[2] = Counterscreen for AddAB inhibitors: absorbance-based bacterial cell-based high throughput dose response assay for inhibitors of bacterial viability. [Related pubchem assays (depositor defined):AID435030, AID449728, AID449731, AID488942, AID488955, AID488956]; type: functional
cells [3] = experiment: cells
[4] = NIH3T3 cell viability loss – ATP luminescence, mouse fibroblasts, counter-screen, dose response (AID 2010); type: functional, cell-based;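 further: cells exposed to compound for about 90 hours before reading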
cells [5] = type: functional, cell-based
[6] = alpha-synuclein stem-loop translation blockers – luminescence, H4 neuroglioblastoma cells, dose confirmation, confirmation (AID 2454); type: functional, cell-based;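 further: H4 neuroglioblastoma cells carrying an alpha-synuclein 5'UTR luciferase reporter; potency for inhibition of the luciferase signal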
BJ [7] = experiment: growth inhibition of engineered Ras-driven BJ cells – cell-based, alamar blue fluorescence, cherrypicked samples, dose response (AID 2631); type: functional; settings: Homo sapiens;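 further: confirmatory dose-response assay in RAS-dependent BJ fibroblasts engineered with TERT, LT and ST, with cytotoxicity read by fluorescence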
[8] = luciferase reporter signal reduction – luminescence, H4-C neuroglioblastoma cells, dose response (AID 2458); type: functional, cell-based;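 further: H4 neuroglioblastoma cells stably carrying a luciferase reporter gene fusion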
BJ [9] = experiment: BJ-TERT fibroblast viability loss – cell-based, RAS-independent, luminescence, dose response (AID 1933); type: functional; settings: Homo sapiens
BJ [10] = experiment: BJ-TERT-LT-ST fibroblast viability loss – cell-based, RAS-independent, luminescence, dose response (AID 1935); type: functional; settings: Homo sapiens;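 further: BJ fibroblasts immortalized with TERT plus LT and ST oncogenes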
[11] = tested on: Streptococcus sp. 'group A'; experiment: Streptococcus pyogenes SK(-)GAS viability under kanamycin – luminescence, BacTiterGlo, confirmation, counter-screen for streptokinase expression inhibitor project, dose response (AID 1900); type: functional, organism-based
BJ [12] = experiment: cells; type: functional, cell-based; settings: Homo sapiens
Streptococcus = experiment: GAS UMAA2166 growth inhibition – luminescence, BacTiterGlo, counter-screen for streptokinase expression inhibitor project, dose response (AID 1915); type: functional, organism-based;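 further: potency for reduction of bacterial viability or growth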
[13] = luciferase reporter signal suppression in cells – H4 neuroglioma cells, luminescence, dose response (AID 1990); type: functional, cell-based
[14] = alpha-synuclein stem-loop luciferase translation blockers – H4 neuroglioma cells, luminescence, confirmation (AID 1988); type: functional, cell-based
HEK293 = experiment: EBV LMP1 TES2 canonical NF-kB signalling blockers – cell-based, HEK293, luciferase, cherry-pick, dose response (AID 588343); type: functional; settings: Homo sapiens
[15] = DRD fibroblast viability loss – cell-based, non-viral oncogenic, luminescence, dose response (AID 1934); type: functional; settings: Homo sapiens
[16] = HEK-293T viability loss after treatment – luminescence, T-cell screen hits, cytotoxicity control for TCR NF-kB inhibitor project, dose response (AID 489026); type: functional, cell-based;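 further: cells exposed to compound about 14 hours before the viability readout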
Paired box protein Pax-8 = Paired box protein Pax-8 (Homo sapiens, UniProt Q06710); experiment: PAX8 transcriptional activity inhibition in RMG-I – RMG-I cells, luciferase, cherry-pick, dose response (AID 687027); type: functional, cell-based;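 further: luciferase reporter driven by Pax8 target thyroperoxidase promoter measured by SteadyGlo luminescence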
[17] = Luminescence Cell-Based Dose Response HTS to Identify Inhibitors of 5'UTR Stem-Loop Driven Prion Protein mRNA Translation in H4 Neuroglioblastoma Cells. [Related pubchem assays: 1827 (Project Summary), 1813 (Primary HTS)]; type: functional
Coagulation factor XII = biological target: T1, Coagulation factor XII (Homo sapiens, UniProt P00748); type: functional;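 further: activated factor XIIa alpha cleaving a fluorogenic AMC peptide substrate; inhibitor potency from loss of enzyme activity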
T1 sequence (P00748 whole entry): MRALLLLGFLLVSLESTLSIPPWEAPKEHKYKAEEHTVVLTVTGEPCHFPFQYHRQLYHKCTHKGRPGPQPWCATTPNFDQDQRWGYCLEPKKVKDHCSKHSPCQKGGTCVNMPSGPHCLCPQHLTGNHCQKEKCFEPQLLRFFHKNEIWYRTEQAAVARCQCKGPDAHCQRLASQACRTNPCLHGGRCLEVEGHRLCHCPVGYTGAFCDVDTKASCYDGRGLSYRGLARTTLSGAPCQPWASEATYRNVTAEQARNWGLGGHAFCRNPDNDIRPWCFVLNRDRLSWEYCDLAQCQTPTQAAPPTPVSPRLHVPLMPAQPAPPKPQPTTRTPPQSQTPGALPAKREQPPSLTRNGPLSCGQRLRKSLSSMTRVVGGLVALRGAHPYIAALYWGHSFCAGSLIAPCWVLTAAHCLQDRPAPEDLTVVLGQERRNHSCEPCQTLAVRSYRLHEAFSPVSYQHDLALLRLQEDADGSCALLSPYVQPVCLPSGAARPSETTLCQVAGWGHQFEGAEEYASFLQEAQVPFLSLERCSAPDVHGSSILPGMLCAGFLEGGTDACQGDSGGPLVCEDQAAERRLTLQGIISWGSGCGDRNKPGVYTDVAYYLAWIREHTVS

[18] = biological target: Heat shock protein HSP 90-alpha (Homo sapiens, UniProt P07900); type: functional, organism-based
T-cell = experiment: loss of vesicle association with mouse CD8+ T cells – mouse 2C CD8+ T cells, flow cytometry, dose response (AID 485284); type: functional
[19] = biological target: Dual specificity tyrosine-phosphorylation-regulated kinase 1A (Rattus norvegicus, UniProt Q63470); type: biochemical, Homo sapiens
[20] = fluconazole-exposed Candida albicans growth modulators – fluorescence, retest, confirmation (AID 2467); type: functional, cell-based
INS1 = experiment: INS-1E survival protection against cytokine death – cell-based, luminescence, retest, dose response (AID 449756); type: functional; settings: Rattus norvegicus;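 further: cell death triggered by IL-1 beta plus TNF-alpha plus IFN-gamma mixture; protective hits raise ATP signal compared with cytokine alone wells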
[21] = NIH-3T3 fibroblast cytotoxicity, dose response, cytotoxicity control, cell-based, fluorescence, Alamar Blue, secondary assay (AID 2327); type: functional;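 further: NIH-3T3 mouse fibroblasts cultured with fluconazole at 8 µg/mL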
Streptokinase A = biological target: T2, Streptokinase A (Streptococcus pyogenes serotype M1, UniProt P10520); experiment: viability-normalized secreted streptokinase activity reduction – plasminogen activation absorbance, OD405, dose response (AID 1914); type: functional, Streptococcus pyogenes M1 GAS;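 further: secreted streptokinase activity via plasminogen activation per viability signal from cell pellet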
T2 sequence (P10520 whole entry): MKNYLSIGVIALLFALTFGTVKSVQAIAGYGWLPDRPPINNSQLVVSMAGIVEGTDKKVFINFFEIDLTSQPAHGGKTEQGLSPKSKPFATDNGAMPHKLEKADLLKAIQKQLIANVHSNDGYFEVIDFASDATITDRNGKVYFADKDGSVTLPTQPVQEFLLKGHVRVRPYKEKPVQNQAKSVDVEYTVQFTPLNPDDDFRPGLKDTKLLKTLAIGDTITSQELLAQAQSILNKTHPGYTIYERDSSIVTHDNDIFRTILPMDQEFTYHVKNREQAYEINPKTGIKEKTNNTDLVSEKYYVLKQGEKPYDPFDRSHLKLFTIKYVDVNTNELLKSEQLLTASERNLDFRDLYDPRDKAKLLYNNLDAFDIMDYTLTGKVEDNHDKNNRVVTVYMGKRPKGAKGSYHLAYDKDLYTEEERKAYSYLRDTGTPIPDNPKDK

[22] = HEK-293T cell viability reduction – luminescence, B-cell screen hits, cytotoxicity control for BCR NF-kB inhibitor project, dose response (AID 489021); type: functional, cell-based;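 further: HEK-293T cells carrying an NF-kB luciferase reporter; cells exposed to compound for about 14 hours before viability readout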
[23] = general cell-killing toxicity readout – plate reader, dry powder samples, cytotoxicity control for PAX8 inhibitor project, dose response (AID 743021); type: functional, cell-based

Chain of Paired box protein Pax-8 (Q06710 whole entry): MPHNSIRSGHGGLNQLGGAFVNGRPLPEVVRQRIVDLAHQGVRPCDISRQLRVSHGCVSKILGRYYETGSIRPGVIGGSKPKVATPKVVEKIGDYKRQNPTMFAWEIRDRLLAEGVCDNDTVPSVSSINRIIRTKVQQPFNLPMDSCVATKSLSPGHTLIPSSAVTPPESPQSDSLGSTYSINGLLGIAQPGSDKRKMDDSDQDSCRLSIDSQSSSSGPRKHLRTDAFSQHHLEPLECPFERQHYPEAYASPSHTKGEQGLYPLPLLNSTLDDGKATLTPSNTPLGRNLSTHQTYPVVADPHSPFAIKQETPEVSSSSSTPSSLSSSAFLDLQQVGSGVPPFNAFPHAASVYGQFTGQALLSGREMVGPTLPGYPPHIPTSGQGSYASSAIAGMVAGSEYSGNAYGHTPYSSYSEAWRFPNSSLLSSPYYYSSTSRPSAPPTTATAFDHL

For `O=C(NCc1cccnc1)c1ccc([N+](=O)[O-])o1`, the EC50 [1] was < 100 nM (active), the IC50 [2] was > 39500 nM (inactive) and the EC50 (cells [3]) was 137 nM (active). The EC50 [4] was > 60000 nM (inconclusive).
In the case of `CN(Cc1cnc2nc(N)nc(N)c2n1)c1ccc(C(=O)N[C@@H](CCC(=O)O)C(=O)O)cc1`, the EC50 (cells [5]) is reported as 78 nM (active), the EC50 [6] is reported as 11 nM (active) and the EC50 (BJ [7]) is reported as > 133000 nM (inactive). For the same molecule, the EC50 [8] was 74 nM (active), the EC50 (BJ [9]) was > 150000 nM (not active) and the EC50 (BJ [10]) was > 150000 nM (not active). For the same molecule, the EC50 [11] was 621 nM (active), the EC50 (BJ [12]) was < 460 nM (active) and the EC50 (Streptococcus) was 650 nM (active). The EC50 [13] was < 100 nM (active), the EC50 [14] was < 100 nM (active) and the AC50 (HEK293) was 332 nM (active). The EC50 [15] was 244 nM (active).
In the case of `COc1cc(C2C3=C(Nc4ncnn42)c2ccccc2CC3)cc(OC)c1OC` (centres undefined), the EC50 (cells [5]) is reported as 452 nM (active), the EC50 [6] is reported as 348 nM (active) and the IC50 [16] is reported as > 80000 nM (inactive). For the same molecule, the EC50 [8] was 210 nM (active), the EC50 (BJ [9]) was 572 nM (active) and the EC50 (BJ [10]) was 498 nM (inconclusive). The AC50 (Paired box protein Pax-8) was 2180 nM (active), the EC50 (BJ [12]) was 659 nM (active) and the EC50 [13] was < 100 nM (active). The EC50 [14] was < 100 nM (active), the EC50 [15] was 532 nM (active) and the EC50 [17] was < 100 nM (active).
For `COc1cccc(NC(C)(C)c2nnnn2-c2c(C)cccc2C)c1`, the IC50 (Coagulation factor XII) was > 50000 nM (inactive).
For `C=CC(C)(C)c1c(O)c(CC=C(C)C)c(O)c2c(=O)c3ccc(O)c(O)c3oc12` [GERONTOXANTHONE I], the AC50 [18] was 8030 nM (active), the EC50 (T-cell) was 2860 nM (active) and the AC50 [19] was 8270 nM (active). For the same molecule, the EC50 [20] was > 38000 nM (not active), the EC50 [11] was 2290 nM (active) and the EC50 (Streptococcus) was 7750 nM (active). For the same molecule, the AC50 (INS1) was 3340 nM (active), the EC50 [21] was > 160000 nM (inconclusive) and the EC50 (Streptokinase A) was > 150000 nM (not active).
For `COc1ccc(OCc2cccc(C(=O)Nc3cc(C)on3)c2)cc1`, the IC50 [22] was > 80000 nM (inactive), the AC50 (Paired box protein Pax-8) was 4140 nM (active) and the EC50 [14] was 9850 nM (inconclusive). The AC50 [23] was 43900 nM (active) and the EC50 [17] was > 60000 nM (not active).
